Measurements reported in patent publication EP1263444B1, “USE OF XANTHINE DERIVATIVES FOR PREPARING A MEDICINE FOR PREVENTING AND TREATING OSTEOPOROSIS” (Aventis Pharma S.A., priority 2000, dated 2001).

Assays:
Type in all cases: in vivo
rate ovariectomisée [1] = assay: Serum cholesterol level in the ovariectomised rat model; conditions: 10 mg/kg po, 4 weeks, decrease of serum cholesterol in % versus OVX animals receiving solvent only
Excerpt: (§1) L'impact osseux des dérivés de xanthine selon l'invention a été évalué sur un modèle d'ostéopénie, la rate ovariectomisée à l'âge de 3 mois, afin de déterminer son effet sur la masse osseuse, et sur l'activité de formation et de résorption osseuse sur ce modèle. Les animaux sont traités en préventif.
(§2) Sur ce modèle d'ostéopénie l'effet d'un dérivé xanthine est comparé à celui de la PTH • Produit à tester : Le [1-(3-phénylxanthin-1-yl)méthyl] diméthylphosphine oxide • véhicule(s) : méthylcellulose 0,5 % ou sérum physiologique • dose(s) : 10 mg/kg pour le produit. la PTH est administrée à la dose de 10 et 25 µg/kg/j par voie sous cutanée • nombre d'administrations : une fois/jour; 5 jours/semaine pendant 4 semaines • voie d'administration : voie orale pour le produit. La PTH est administrée par voie sous cutanée • volume : 1 ml/kg p o et s c • délai entre l'injection et le sacrifice : 24 heures • nombre d'administrations : 20.
(§3) Des rats femelles âgées de 3 mois et pesant environ 250-300 g sont ovariectomisées sous anesthésie à l'Imalgène 1000, à la dose de 100 mg/kg par voie intrapéritonéale (i.p) et sous un volume de 1 ml/kg. Ils reçoivent également du Nembutal (3 mg/kg i.p. sous un volume de 0,3 ml/kg). Les animaux sont répartis en groupes de 8 rats.
(§4) Après incision latérale, les plans cutanés et musculaires sont sectionnés. L'exérèse de chaque ovaire se fait après ligature de l'oviducte. […]

rate ovariectomisée [2] = assay: Bone mineral density (DEXA) of the left tibia in the ovariectomised rat osteopenia model, preventive treatment; conditions: 10 mg/kg po, once daily, 5 days/week for 4 weeks; (BMD treated - BMD OVX)/(BMD SHAM - BMD OVX) x 100
Excerpt: as §1, §2, §3, §4

rate ovariectomisée [3] = assay: Uterus weight in the ovariectomised rat model; conditions: 10 mg/kg po, 4 weeks, weight increase in % of uterus weight of OVX animals receiving solvent only
Excerpt: as §1, §2, §3, §4

UTERUS Poids % (rate ovariectomisée [3]): 10%
UTERUS Poids % (rate ovariectomisée [3]; listed as Ce produit): aucune activité utérotrophique
Structure (SMILES): CP(C)(=O)Cn1c(=O)c2[nH]cnc2n(-c2ccccc2)c1=O [Dérivé xanthine, [1-(3-phénylxanthin-1-yl)méthyl] diméthylphosphine oxide]
Cholestérol % (rate ovariectomisée [1]): Pas d'effet
Cholestérol % (rate ovariectomisée [1]; listed as Ce produit): pas d'effet
OS TIBIA Densité % (rate ovariectomisée [2]): 40%
